Measurements published in US10626436B2, “Method of determining a compositional or functional characteristic of a cell culture media” (Valitacell Limited, priority 2015, dated 2020).

Experiments:
[1] = test system: reference CHO producer cell; assay: Growth of reference CHO producer cell in static microplate culture with a cell stressor in four lots of the same cell culture media; format: cell-based; settings: stressor at an inhibitory concentration, each in triplicate, FIGS. 3-5
Protocol: FIG. 3: A reference CHO producer cell was grown in static microplate culture in the presence of cobalt chloride (CoCL2) at an inhibitory concentration and four different lots of the same cell culture media (each lot provided in triplicate).
FIG. 4: A reference CHO producer cell was grown in static microplate culture in the presence of menadione sodium bisulphite (MSB2) at an inhibitory concentration and four different lots of the same cell culture media (each lot provided in triplicate).
FIG. 5: A reference CHO producer cell was grown in static microplate culture in the presence of sodium lactate (NaLac) at an inhibitory concentration and four different lots of the same cell culture media (each lot provided in triplicate).

CHO cell line = assay: Chemical fingerprinting: growth of CHO cells with cell stressors in two CD-CHO media lots (Presto Blue assay); format: cell-based; settings: CD-CHO media lot 66 vs lot 28; stressor at IC50 concentration, both MSB concentrations; FIG. 2; p<0.05 (Benjamini-Hockberg)
Protocol: Two different batches of “CD-CHO media” (Invitrogen, Paisley, UK) were obtained. A CHO cell line was grown in these […] media for 3 passages in 30 ml shake flask culture. “Presto Blue” (Invitrogen, Paisley, UK) was mixed 1:1 with CD-CHO media and 20 ul of this was added to each well. The plate was machine shaken and subsequently incubated for 30 minutes at 37 C in a static humidified incubator. After incubation the fluorescence of the wells was measured (excitation 535 nm emission 620 nm) using a fluoroskan ascent (Thermo-Fisher, Loughborough, UK) plate reader. […] It is clear here that there were significant differences in the cell growth in these different batches of media. This was clearly significant from day 4 onwards.
To test the effect this had on the chemical fingerprint, CHO cells were sub-cultured in CD-CHO in either lot number (66) or (28) for 3 passages. Chemical fingerprinting plates were set up in duplicate to determine the growth of cells in the presence of specific cellular stressors
Using the same CHO cell line used above for the growth studies, inhibitory dose 50 (IC50) concentrations of the above chemicals were identified through growth studies. […]
After this period the level of cell growth in the plates (i.e. in the presence and absence of chemicals as mentioned above) was measured using the “Presto Blue” assay as described above. […]

Compound	growth response of the cell in different lots of the cell culture media in the presence of the stressor [1]	chemical response (cell growth relative to control well) compared between media lots (CHO cell line)
CC(O)C(=O)[O-].[Na+] (stereo not shown) [sodium lactate, Sodium lactate]	differences in growth response	
CC1(S(=O)(=O)[O-])CC(=O)c2ccccc2C1=O.[Na+] (stereo not shown) [MSB, Menadione Sodium Bisulphite]	differences in growth response	clearly significant difference
[Cl][Co][Cl] [cobalt chloride, Cobalt chloride]	differences in growth response	
